Organism: Rattus norvegicus
Assay: DrugMatrix - Regimen: Daily Repeat
Format: toxicity, organism-based, Sprague-Dawley
Design: regimen Daily Repeat, gender Male, age 6-8 weeks
Conditions: in vivo, po, route oral GAVAGE, vehicle .5 % CMC; for ABSOLUTE BASOPHIL / ABSOLUTE EOSINOPHIL / ABSOLUTE LYMPHOCYTE / ABSOLUTE MONOCYTE / ABSOLUTE SEGMENTED NEUTROPHIL / BASOPHIL / EOSINOPHIL / ERYTHROCYTE COUNT / HEMATOCRIT / HEMOGLOBIN / LEUKOCYTE COUNT / LYMPHOCYTE / MEAN CORPUSCULAR HEMOGLOBIN / MEAN CORPUSCULAR HEMOGLOBIN CONCENTRATION / MEAN CORPUSCULAR VOLUME / MONOCYTE / NEUTROPHIL / NUCLEATED RED BLOOD CELLS / PLATELET COUNT: tissue Blood; for ALANINE AMINOTRANSFERASE / ALBUMIN / ALKALINE PHOSPHATASE / ASPARTATE AMINOTRANSFERASE / BLOOD UREA NITROGEN / CARBON DIOXIDE / CHLORIDE / CHOLESTEROL / CREATINE PHOSPHOKINASE / CREATININE / GLUCOSE / LACTATE DEHYDROGENASE / LIPASE / PHOSPHORUS / POTASSIUM / SODIUM / TOTAL BILIRUBIN / TOTAL PROTEIN / URIC ACID: tissue Plasma
[1] = 15 mg/kg, 120 h, dose level Low, time 5 day
[2] = 1500 mg/kg, 72 h, dose level High, time 3 day
[3] = 1500 mg/kg, 120 h, dose level High, time 5 day

COC(=O)c1ccc(O)cc1 [METHYLPARABEN] was tested, and the “ABSOLUTE BASOPHIL” value [1] was 0 CELLS/uL, the “ABSOLUTE EOSINOPHIL” value [1] was 60.67 CELLS/uL and the “ABSOLUTE LYMPHOCYTE” value [1] was 12673.33 CELLS/uL. For the same molecule, the “ABSOLUTE MONOCYTE” value [1] was 0 CELLS/uL, the “ABSOLUTE SEGMENTED NEUTROPHIL” value [1] was 1232.67 CELLS/uL and the BASOPHIL [1] was 0%. For the same molecule, the EOSINOPHIL [1] was 0.33%, the “ERYTHROCYTE COUNT” value [1] was 5.42 x10E6/uL and the HEMATOCRIT [1] was 34.93%. The HEMOGLOBIN [1] was 13.97 G/DL, the “LEUKOCYTE COUNT” value [1] was 13.97 x10E3/uL and the LYMPHOCYTE [1] was 91%. For the same molecule, the “MEAN CORPUSCULAR HEMOGLOBIN” value [1] was 25.8 pg, the “MEAN CORPUSCULAR HEMOGLOBIN CONCENTRATION” value [1] was 40 G/DL and the “MEAN CORPUSCULAR VOLUME” value [1] was 64.4 fL. For the same molecule, the MONOCYTE [1] was 0%, the NEUTROPHIL [1] was 8.67% and the “NUCLEATED RED BLOOD CELLS” value [1] was 0 /100WBC. For the same molecule, the “PLATELET COUNT” value [1] was 1233.67 x10E3/uL, the “ALANINE AMINOTRANSFERASE” value [1] was 58.67 u/L and the ALBUMIN [1] was 3.9 G/DL. For the same molecule, the “ALKALINE PHOSPHATASE” value [1] was 392.67 u/L, the “ASPARTATE AMINOTRANSFERASE” value [1] was 87.33 u/L and the “BLOOD UREA NITROGEN” value [1] was 17.67 mg/dL. For the same molecule, the “CARBON DIOXIDE” value [1] was 26 mmol/L, the CHLORIDE [1] was 101.67 MEQ/L and the CHOLESTEROL [1] was 65.33 mg/dL. For the same molecule, the “CREATINE PHOSPHOKINASE” value [1] was 524 u/L, the CREATININE [1] was 0.12 mg/dL and the GLUCOSE [1] was 151 mg/dL. The “LACTATE DEHYDROGENASE” value [1] was 137.67 u/L, the LIPASE [1] was 9.33 u/L and the PHOSPHORUS [1] was 14.13 mg/dL. For the same molecule, the POTASSIUM [1] was 6.95 MEQ/L, the SODIUM [1] was 142.07 MEQ/L and the “TOTAL BILIRUBIN” value [1] was 0.23 mg/dL. The “TOTAL PROTEIN” value [1] was 5.7 G/DL, the “URIC ACID” value [1] was 1.93 mg/dL and the “ABSOLUTE BASOPHIL” value [2] was 0 CELLS/uL. For the same molecule, the “ABSOLUTE EOSINOPHIL” value [2] was 0 CELLS/uL, the “ABSOLUTE LYMPHOCYTE” value [2] was 15298 CELLS/uL and the “ABSOLUTE MONOCYTE” value [2] was 225.33 CELLS/uL. For the same molecule, the “ABSOLUTE SEGMENTED NEUTROPHIL” value [2] was 3076.67 CELLS/uL, the BASOPHIL [2] was 0% and the EOSINOPHIL [2] was 0%. The “ERYTHROCYTE COUNT” value [2] was 5.36 x10E6/uL, the HEMATOCRIT [2] was 33.07% and the HEMOGLOBIN [2] was 13.37 G/DL. For the same molecule, the “LEUKOCYTE COUNT” value [2] was 18.6 x10E3/uL, the LYMPHOCYTE [2] was 82.67% and the “MEAN CORPUSCULAR HEMOGLOBIN” value [2] was 25.03 pg. The “MEAN CORPUSCULAR HEMOGLOBIN CONCENTRATION” value [2] was 40.47 G/DL, the “MEAN CORPUSCULAR VOLUME” value [2] was 61.8 fL and the MONOCYTE [2] was 1.33%. The NEUTROPHIL [2] was 16%, the “NUCLEATED RED BLOOD CELLS” value [2] was 0 /100WBC and the “PLATELET COUNT” value [2] was 1154.33 x10E3/uL. The “ALANINE AMINOTRANSFERASE” value [2] was 60 u/L, the ALBUMIN [2] was 4.03 G/DL and the “ALKALINE PHOSPHATASE” value [2] was 433.33 u/L. For the same molecule, the “ASPARTATE AMINOTRANSFERASE” value [2] was 87 u/L, the “BLOOD UREA NITROGEN” value [2] was 18 mg/dL and the “CARBON DIOXIDE” value [2] was 30.33 mmol/L. The CHLORIDE [2] was 95.67 MEQ/L, the CHOLESTEROL [2] was 67.67 mg/dL and the “CREATINE PHOSPHOKINASE” value [2] was 211.67 u/L. For the same molecule, the CREATININE [2] was 0.15 mg/dL, the GLUCOSE [2] was 165.67 mg/dL and the “LACTATE DEHYDROGENASE” value [2] was 122 u/L. The LIPASE [2] was 9 u/L, the PHOSPHORUS [2] was 12.87 mg/dL and the POTASSIUM [2] was 6.96 MEQ/L. The SODIUM [2] was 141.63 MEQ/L, the “TOTAL BILIRUBIN” value [2] was 0.23 mg/dL and the “TOTAL PROTEIN” value [2] was 5.77 G/DL. The “URIC ACID” value [2] was 1.4 mg/dL, the “ABSOLUTE BASOPHIL” value [3] was 0 CELLS/uL and the “ABSOLUTE EOSINOPHIL” value [3] was 0 CELLS/uL. The “ABSOLUTE LYMPHOCYTE” value [3] was 16336 CELLS/uL, the “ABSOLUTE MONOCYTE” value [3] was 67.33 CELLS/uL and the “ABSOLUTE SEGMENTED NEUTROPHIL” value [3] was 1396.67 CELLS/uL. For the same molecule, the BASOPHIL [3] was 0%, the EOSINOPHIL [3] was 0% and the “ERYTHROCYTE COUNT” value [3] was 5.64 x10E6/uL. For the same molecule, the HEMATOCRIT [3] was 35.9%, the HEMOGLOBIN [3] was 14.27 G/DL and the “LEUKOCYTE COUNT” value [3] was 17.8 x10E3/uL. The LYMPHOCYTE [3] was 92%, the “MEAN CORPUSCULAR HEMOGLOBIN” value [3] was 25.3 pg and the “MEAN CORPUSCULAR HEMOGLOBIN CONCENTRATION” value [3] was 39.77 G/DL. For the same molecule, the “MEAN CORPUSCULAR VOLUME” value [3] was 63.6 fL, the MONOCYTE [3] was 0.33% and the NEUTROPHIL [3] was 7.67%. The “NUCLEATED RED BLOOD CELLS” value [3] was 0 /100WBC, the “PLATELET COUNT” value [3] was 1293.33 x10E3/uL and the “ALANINE AMINOTRANSFERASE” value [3] was 45.33 u/L. For the same molecule, the ALBUMIN [3] was 4.33 G/DL, the “ALKALINE PHOSPHATASE” value [3] was 338.33 u/L and the “ASPARTATE AMINOTRANSFERASE” value [3] was 85 u/L. For the same molecule, the “BLOOD UREA NITROGEN” value [3] was 15.67 mg/dL, the “CARBON DIOXIDE” value [3] was 30 mmol/L and the CHLORIDE [3] was 100.67 MEQ/L. For the same molecule, the CHOLESTEROL [3] was 76 mg/dL, the “CREATINE PHOSPHOKINASE” value [3] was 311.33 u/L and the CREATININE [3] was 0.22 mg/dL. For the same molecule, the GLUCOSE [3] was 154.33 mg/dL, the “LACTATE DEHYDROGENASE” value [3] was 98 u/L and the LIPASE [3] was 9 u/L. It also gave a PHOSPHORUS [3] of 11.73 mg/dL, a POTASSIUM [3] of 6.62 MEQ/L and an SODIUM [3] of 145.9 MEQ/L. For the same molecule, the “TOTAL BILIRUBIN” value [3] was 0.27 mg/dL, the “TOTAL PROTEIN” value [3] was 6.1 G/DL and the “URIC ACID” value [3] was 1.9 mg/dL.

— ChEMBL document CHEMBL3885881, “DrugMatrix”
